Assay results from patent US3984390A, “Novel process for producing phleomycin group antibiotics” (Zaidan Hojin Biseibutsu Kagaku Kenkyu Kai, priority 1972, dated 1976).

Key:
[1] = system: Mycobacterium smegmatis 607; assay: Antimicrobial potency, cylinder agar plate method, Bleomycin A2 (copper-free base) assumed as 1000 U/mg; type: cell-based; details: Mycobacterium smegmatis 607
Description: 1. Antimicrobial potency was assayed by a cylinder agar plate method on the basis of Bleomycin A2 (copper-free base) assumed as 1000 U/mg, using Mycobacterium smegmatis 607 as test organism.
^(1) Assayed by a cylinder-agar plate method using Mycobacterium
smegmatis 607 as test organism, the potency of bleomycin A2
(copper-free base) being assumed as 1000 unit/mg.
The resulting compound has 0.65 of Rf value of the Silica gel thin layer chromatograph (CH3 OH: 10 %-CH3 COONH4 : 10 %-NH4 OH = 10 : 9 : 1) and 0.53 of Rf value of the Avicel thin layer chromatography (n-C3 H7 OH : pyridine : CH3 COOH : H2 O = 15 : 10 : 3 : 12) which are same with those of the 3-morpholinopropylaminobleomycin. The antimicrobial activity to Mycobacterium smegmatis 607 by the cylinder-agar plate method (the standard copper-free bleomycin A2 free base 1,000 U/mg) was 605 U/mg.

[2] = system: Ehrlich ascites carcinoma; assay: Antitumor activity and toxicity in ICR-SLC mouse inoculated with Ehrlich ascites carcinoma, i.p. for ten consecutive days; type: in vivo; details: Table 5; ten consecutive days into peritoneal cavity; evaluated 50 days after beginning
Description: The phleomycin was administered for ten consecutive days into peritoneal cavity of a ICR-SLC mouse, into which Ehrlich ascites carcinoma had been inoculated. Fifty days after the beginning of the experiment, measurements were made for (1) the number of dead mouse owing to toxicity, (2) the number of survived mouse, (3) mean survival period in 50 days, and (4) the ratio of mean survival period to that of reference mouse multiplied by 100. The chemotherapeutic index was calculated from the values of ED50 (50 % effective dose) and LD50 (50 % lethal dose) which were obtained as given below.
ED50 value: The maximum dose level within the range of logevity ratio of 100 to 200.
LD50 value: Calculated according to Behrens-Karber method from the data of (1) and (2).
^(2) A bleomycin was administered for ten consecutive days into
peritoneal cavity of a ICR-SLC mouse, where Ehrlich ascites carcinoma had
been inoculated, and 50 days after the beginning of experiment the […]

[3] = phleomycins of Table 1, Bleomycin A2 (copper-free base) = 1000 U/mg
[4] = bleomycins of Table 5, bleomycin A2 (copper-free base) = 1000 unit/mg

Substance | Antimicrobial potency [1, 3] [unit/mg] | Antimicrobial potency [1, 4] [Unit/mg] | Chemotherapeutic index [2]
2-(Imidazol-4-yl)ethylaminophleomycin | 678 | – | –
2-N,N-Diethylaminoethylaminophleomycin | 882 | – | –
2-N,N-Dimethylaminoethylaminobleomycin | – | 897 | 7.8
2-N,N-Dimethylaminoethylaminophleomycin | 718 | – | –
3-(3-Morpholinopropylamino)propylaminophleomycin | 961 | – | –
3-(3-N,N-Dimethylaminopropylamino)propylaminobleomycin | – | 1670 | 54
3-(3-N-Benzylaminopropylamino)propylaminobleomycin | – | 6000 | 24.0
3-(3-N-Benzylaminopropylamino)propylaminophleomycin | 6710 | – | –
3-(3-N-Cyclohexylaminopropylamino)propylaminobleomycin | – | 12335 | 39.5
3-(3-N-Cyclohexylaminopropylamino)propylaminophleomycin | 8570 | – | –
3-(3-N-n-Butylaminopropylamino)propylaminobleomycin | – | 5840 | 59.2
3-(3-N-n-Butylaminopropylamino)propylaminophleomycin | 4672 | – | –
3-(3-Piperidinopropylamino)propylaminobleomycin | – | 3580 | 16.8
3-(3-Piperidinopropylamino)propylaminophleomycin | 2864 | – | –
3-(3-Pyrrolidinopropylamino)propylaminobleomycin | – | 3286 | 26.4
3-(3-Pyrrolidinopropylamino)propylaminophleomycin | 2051 | – | –
3-(N,N,N-Trimethylamino)propylaminophleomycin chloride | 506 | – | –
3-(N,N-Dimethylaminopropylamino)propylaminophleomycin | 1336 | – | –

Substance | Antimicrobial potency [1, 3] [unit/mg] | Antimicrobial potency [1, 4] [Unit/mg] | Chemotherapeutic index [2]
3-Amidinopropylaminophleomycin | 2500 | – | –
3-Guanidinopropylaminophleomycin | 2300 | – | –
3-N,N-Diethylaminopropylaminophleomycin | 829 | – | –
3-N,N-Dimethylaminopropylaminophleomycin | 648 | – | –
3-N-(1-Phenylethyl)aminopropylaminophleomycin | 4030 | – | –
3-N-(3,3-Dichloropropyl)aminopropylaminophleomycin | 3120 | – | –
3-N-(3-Hydroxypropyl)aminopropylaminophleomycin | 845 | – | –
3-N-Benzylaminopropylaminophleomycin | 3373 | – | –
3-N-Cyclohexylaminopropylaminophleomycin | 4284 | – | –
3-N-Methylaminopropylaminophleomycin | 688 | – | –
3-N-Propenylaminopropylaminophleomycin | 2100 | – | –
3-N-n-Butylaminopropylaminophleomycin | 3535 | – | –
3-N-tert-Butylaminopropylaminophleomycin | 3520 | – | –
3-Piperazinopropylaminophleomycin | 581 | – | –
3-Piperidinopropylaminophleomycin | 1006 | – | –
3-Pyrrolidinopropylaminophleomycin | 853 | – | –
3-[3-N-(1-phenylethyl)aminopropylamino]propylaminophleomycin | 7208 | – | –
